{"source": "patent US4588740A", "about": "“Pharmaceutical methods using 4-aminoalkyl-2(3H)-indolones” (priority 1983, dated 1986)", "key": {"D2 -receptors": {"molecular_target": "T1, D2 -receptors (Oryctolagus cuniculus, UniProt G1T1Q0)", "T1 construct": "In the perfused rabbit ear artery test; from tissue; host or cells: perfused rabbit ear artery (receptors on sympathetic nerve terminals)", "T1 sequence (G1T1Q0 1-443)": "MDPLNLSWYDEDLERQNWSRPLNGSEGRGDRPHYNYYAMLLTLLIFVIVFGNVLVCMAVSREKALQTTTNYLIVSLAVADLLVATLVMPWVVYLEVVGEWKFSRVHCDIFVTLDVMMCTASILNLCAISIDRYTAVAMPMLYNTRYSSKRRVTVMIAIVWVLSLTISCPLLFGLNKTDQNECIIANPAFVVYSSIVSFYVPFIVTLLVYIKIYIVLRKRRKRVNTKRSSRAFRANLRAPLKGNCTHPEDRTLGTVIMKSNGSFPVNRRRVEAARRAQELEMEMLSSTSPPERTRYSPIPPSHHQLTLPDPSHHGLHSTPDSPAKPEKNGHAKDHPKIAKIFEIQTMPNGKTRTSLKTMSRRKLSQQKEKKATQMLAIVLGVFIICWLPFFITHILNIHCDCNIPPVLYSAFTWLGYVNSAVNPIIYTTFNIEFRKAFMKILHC", "test": "perfused rabbit ear artery test"}, "cardio-accelerator nerve": {"tested_on": "cardio-accelerator nerve", "test": "cardio-accelerator nerve preparation in vivo in the dog"}, "perfused hind limb": {"tested_on": "perfused hind limb", "test": "perfused hind limb preparation in vivo in the dog"}, "[1]": {"tested_on": "DOCA-salt hypertensive rats", "test": "intravenous infusion in DOCA-salt hypertensive rats", "assay_type": "in vivo, rat", "from_the_text": "(§1) Intravenous infusion of this species of this invention in the DOCA-salt hypertensive and spontaneously hypertensive rats reduced blood pressure and heart rate."}, "[2]": {"tested_on": "spontaneously hypertensive rats", "test": "intravenous infusion in spontaneously hypertensive rats", "assay_type": "in vivo, rat", "from_the_text": "as §1"}, "[3]": {"tested_on": "conscious DOCA salt hypertensive rats", "test": "oral dosing in conscious DOCA salt hypertensive rats", "assay_type": "in vivo, rat", "conditions": "oral doses of 10 mg/kg"}, "[4]": {"test": "absorption from the gastrointestinal tract of rats", "assay_type": "in vivo, rat", "conditions": "oral, compared with the 7-hydroxy congener"}, "[5]": {"tested_on": "presynaptic α-dopaminergic receptors (D2 -receptors)", "test": "D2-agonist selectivity (general statement)", "conditions": "peripheral", "from_the_text": "Otherwise speaking, the main focus of action is at the presynaptic α-dopaminergic receptors which may also be called \"D2 -receptors.\" Activation of the D2 -receptors on the sympathetic nerve terminals inhibits the release of norepinephrine, thereby, promoting vasodilation, among other beneficial cardiovascular actions and decreasing sympathetic side-effects caused by norepinephrine release in certain abnormal cardiovascular conditions."}}, "data": [{"smiles": "CCCN(CCC)CCc1cccc2c1CC(=O)N2.Cl", "note": "[4-(2-di-n-propylaminoethyl)-2(3H)-indolone hydrochloride]", "values": [{"measurement": "EC50", "setting": "D2 -receptors", "value": 0.072, "unit": "µM"}, {"measurement": "activity in vivo", "setting": "cardio-accelerator nerve", "value": "active"}, {"measurement": "activity in vivo", "setting": "perfused hind limb", "value": "active"}, {"measurement": "tachyphylaxis", "setting": "perfused hind limb", "value": "did not cause tachyphylaxis"}, {"measurement": "blood pressure", "setting": "[1]", "value": "reduced"}, {"measurement": "heart rate", "setting": "[1]", "value": "reduced"}, {"measurement": "blood pressure", "setting": "[2]", "value": "reduced"}, {"measurement": "heart rate", "setting": "[2]", "value": "reduced"}, {"measurement": "anti-hypertensive effect", "setting": "[3]", "value": "demonstrated an anti-hypertensive effect"}, {"measurement": "absorption from the gastrointestinal tract", "setting": "[4]", "value": "more readily absorbed"}, {"measurement": "D2-agonist selectivity", "setting": "[5]", "value": "selective peripheral D2 -agonists"}]}]}
